Key:
Format in all cases: binding
[1] = molecular target: MtdL (Marinactinospora thermotolerans, UniProt G8HX37, N42D); experiment: ITC
[2] = molecular target: MtdL (Marinactinospora thermotolerans, UniProt G8HX37, T13P); experiment: ITC
[3] = molecular target: T1, MtdL (Marinactinospora thermotolerans, UniProt G8HX37); experiment: ITC; crystal structure of GDP·Mn2+·MtdL at […] Å
T1 sequence (G8HX37 1-376): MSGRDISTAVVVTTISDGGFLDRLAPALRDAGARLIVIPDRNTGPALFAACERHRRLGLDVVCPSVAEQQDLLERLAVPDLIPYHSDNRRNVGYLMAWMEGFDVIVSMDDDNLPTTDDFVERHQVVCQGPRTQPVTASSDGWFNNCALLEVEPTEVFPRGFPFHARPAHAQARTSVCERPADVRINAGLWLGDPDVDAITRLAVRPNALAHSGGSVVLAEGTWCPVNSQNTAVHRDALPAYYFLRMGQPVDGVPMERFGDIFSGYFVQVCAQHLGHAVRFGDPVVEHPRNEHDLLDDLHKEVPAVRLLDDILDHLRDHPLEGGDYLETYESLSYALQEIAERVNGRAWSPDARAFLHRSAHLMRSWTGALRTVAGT

## Nc1nc2c(ncn2[C@@H]2O[C@H](COP(=O)(O)OP(=O)(O)O)[C@@H](O)[C@H]2O)c(=O)[nH]1 [GDP]
[1]
  Kd: ~1240 nM
[2]
  Kd: ~5660 nM
[3]
  Kd: ~200 nM

Reference: paper PMC9937993, “Structures of the NDP-pyranose mutase belonging to glycosyltransferase family 75 reveal residues important for Mn^2+ coordination and substrate binding” (The Journal of Biological Chemistry, 2023)
